Key:
Conditions in all cases: 48 h
[1] = tested on: NOMO1; experiment: AUC of viability dose-response curve (% viability x log10 dose units); higher = less sensitive
Method in brief: (§1)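 Leukemia cells adapted to each medium were seeded at 500 or 1000 cells/well in 1536-well plates and dosed with library compounds in DMSO at 11 threefold doses from 47 μM to 0.79 nM for 48 h at 37°C. CellTiter-Glo One luminescence was normalised per plate to DMSO and cell-free wells, then fitted with a four-parameter log-logistic model over log10 doses. Area under the curve was taken from this fit by the trapezoidal rule, with curves above full viability scaled and curves failing quality control removed.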

[2] = tested on: P12-Ichikawa; experiment: as above
Method in brief: as §1

[3] = tested on: SEM cells; experiment: as above
Method in brief: as §1

[4] = tested on: NOMO1; experiment: cell viability relative to DMSO control; higher = less cytotoxic
Method in brief: (§2)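 Three leukemia lines were tested: NOMO1 and SEM at 500 cells/well and P12-Ichikawa at 1000 cells/well. Each was adapted for at least four passages in each medium and seeded in 5 μl in 1536-well plates, and library compounds in DMSO were pin-dosed from 47 μM to 0.79 nM in 11 threefold steps. After 48 h at 37°C, CellTiter-Glo One luminescence was read. Viability is a percentage relative to DMSO wells on each plate, with cell-free wells as background.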

[5] = tested on: P12-Ichikawa; experiment: as above
Method in brief: as §2

[6] = tested on: SEM cells; experiment: as above
Method in brief: as §2

CC1(C)CCC[C@]2(C)[C@H]3CC(=O)O[C@]3(C)CC[C@@H]12
AUC of viability dose-response curve
Conditions	[1]	[2]	[3]
HPLM + 10% dialyzed FBS	473	468	470
RPMI 5 mM glucose + 10% FBS	468	456	463
RPMI 5 mM glucose + 10% dialyzed FBS	440	453	461

cell viability [%]
Conditions	[4]	[5]	[6]
HPLM + 10% dialyzed FBS, 0.000781 µM	126	118	101
HPLM + 10% dialyzed FBS, 0.00234 µM	107	115	103
HPLM + 10% dialyzed FBS, 0.00702 µM	113	114	102
HPLM + 10% dialyzed FBS, 0.0211 µM	114	114	116
HPLM + 10% dialyzed FBS, 0.0632 µM	118	116	119
HPLM + 10% dialyzed FBS, 0.19 µM	121	110	95.2
HPLM + 10% dialyzed FBS, 0.569 µM	123	115	116
HPLM + 10% dialyzed FBS, 1.71 µM	112	116	118
HPLM + 10% dialyzed FBS, 5.12 µM	126	110	115
HPLM + 10% dialyzed FBS, 15.4 µM	120	107	101
HPLM + 10% dialyzed FBS, 46.1 µM	98.6	99.1	93.3
RPMI 5 mM glucose + 10% FBS, 0.000781 µM	119	121	110
RPMI 5 mM glucose + 10% FBS, 0.00234 µM	111	120	114
RPMI 5 mM glucose + 10% FBS, 0.00702 µM	118	122	106
RPMI 5 mM glucose + 10% FBS, 0.0211 µM	121	120	107
RPMI 5 mM glucose + 10% FBS, 0.0632 µM	107	119	106
RPMI 5 mM glucose + 10% FBS, 0.19 µM	112	124	115
RPMI 5 mM glucose + 10% FBS, 0.569 µM	129	119	119
RPMI 5 mM glucose + 10% FBS, 1.71 µM	98	109	115
RPMI 5 mM glucose + 10% FBS, 5.12 µM	111	109	112
RPMI 5 mM glucose + 10% FBS, 15.4 µM	110	111	82.2
RPMI 5 mM glucose + 10% FBS, 46.1 µM	81.2	93.5	100
RPMI 5 mM glucose + 10% dialyzed FBS, 0.000781 µM	122	110	114
RPMI 5 mM glucose + 10% dialyzed FBS, 0.00234 µM	112	115	106
RPMI 5 mM glucose + 10% dialyzed FBS, 0.00702 µM	125	119	116
RPMI 5 mM glucose + 10% dialyzed FBS, 0.0211 µM	120	116	126
RPMI 5 mM glucose + 10% dialyzed FBS, 0.0632 µM	125	112	104
RPMI 5 mM glucose + 10% dialyzed FBS, 0.19 µM	106	113	112
RPMI 5 mM glucose + 10% dialyzed FBS, 0.569 µM	110	105	121
RPMI 5 mM glucose + 10% dialyzed FBS, 1.71 µM	105	107	111
RPMI 5 mM glucose + 10% dialyzed FBS, 5.12 µM	106	108	119
RPMI 5 mM glucose + 10% dialyzed FBS, 15.4 µM	101	97.5	79.2
RPMI 5 mM glucose + 10% dialyzed FBS, 46.1 µM	92.5	92.4	99.1

CC(C)(C)c1cc(NC(=O)Nc2ccc(-c3cn4c(n3)sc3cc(OCCN5CCOCC5)ccc34)cc2)no1
AUC of viability dose-response curve
Conditions	[1]	[2]	[3]
HPLM + 10% dialyzed FBS	432	468	188
RPMI 5 mM glucose + 10% FBS	394	409	232
RPMI 5 mM glucose + 10% dialyzed FBS	435	442	176

cell viability [%]
Conditions	[4]	[5]	[6]
HPLM + 10% dialyzed FBS, 0.000781 µM	92.8	88.7	66.8
HPLM + 10% dialyzed FBS, 0.00234 µM	93.9	99.1	53.7
HPLM + 10% dialyzed FBS, 0.00702 µM	90.5	97.4	45.8
HPLM + 10% dialyzed FBS, 0.0211 µM	104	108	44.3
HPLM + 10% dialyzed FBS, 0.0632 µM	101	95.3	32.2
HPLM + 10% dialyzed FBS, 0.19 µM	102	99.4	38.2
HPLM + 10% dialyzed FBS, 0.569 µM	87.3	104	46.6
HPLM + 10% dialyzed FBS, 1.71 µM	99.7	101	30
HPLM + 10% dialyzed FBS, 5.12 µM	110	94.4	30.1
HPLM + 10% dialyzed FBS, 15.4 µM	123	101	26.1
HPLM + 10% dialyzed FBS, 46.1 µM	96.5	91	27.8
RPMI 5 mM glucose + 10% FBS, 0.000781 µM	76.8	83.8	80.9
RPMI 5 mM glucose + 10% FBS, 0.00234 µM	76	89.9	61.9
RPMI 5 mM glucose + 10% FBS, 0.00702 µM	85.1	88.1	67.7
RPMI 5 mM glucose + 10% FBS, 0.0211 µM	88.3	89.2	49.8
RPMI 5 mM glucose + 10% FBS, 0.0632 µM	82	86	42.1
RPMI 5 mM glucose + 10% FBS, 0.19 µM	79.2	88.9	46.3
RPMI 5 mM glucose + 10% FBS, 0.569 µM	81.4	86.4	49.3
RPMI 5 mM glucose + 10% FBS, 1.71 µM	87	82.5	38.9
RPMI 5 mM glucose + 10% FBS, 5.12 µM	81.4	82.6	43.4
RPMI 5 mM glucose + 10% FBS, 15.4 µM	81.8	80.3	33.5
RPMI 5 mM glucose + 10% FBS, 46.1 µM	88.5	85.6	27.8
RPMI 5 mM glucose + 10% dialyzed FBS, 0.000781 µM	85.1	93.4	74.2
RPMI 5 mM glucose + 10% dialyzed FBS, 0.00234 µM	94.8	91.6	49.4
RPMI 5 mM glucose + 10% dialyzed FBS, 0.00702 µM	101	93.1	51.3
RPMI 5 mM glucose + 10% dialyzed FBS, 0.0211 µM	82.3	88.9	36.6
RPMI 5 mM glucose + 10% dialyzed FBS, 0.0632 µM	90.5	96.6	30.4
RPMI 5 mM glucose + 10% dialyzed FBS, 0.19 µM	90.8	92.1	36
RPMI 5 mM glucose + 10% dialyzed FBS, 0.569 µM	90.8	101	31.3
RPMI 5 mM glucose + 10% dialyzed FBS, 1.71 µM	93.1	92.4	33.6
RPMI 5 mM glucose + 10% dialyzed FBS, 5.12 µM	92.9	87.7	27.5
RPMI 5 mM glucose + 10% dialyzed FBS, 15.4 µM	92.1	93.8	23.5
RPMI 5 mM glucose + 10% dialyzed FBS, 46.1 µM	89.7	88.5	24.6

CC\1=C(C(\N=C(/N1)C2=CC(=NC=C2)Cl)C3=C(F)C=C(Cl)C=C3)/C(=O)NC4=C(F)C=C5[NH]N=CC5=C4 (centres undefined)
AUC of viability dose-response curve
Conditions	[1]	[2]	[3]
HPLM + 10% dialyzed FBS	459	440	408
RPMI 5 mM glucose + 10% FBS	443	439	405
RPMI 5 mM glucose + 10% dialyzed FBS	457	441	423

cell viability [%]
Conditions	[4]	[5]	[6]
HPLM + 10% dialyzed FBS, 0.000781 µM	85.8	103	82.1
HPLM + 10% dialyzed FBS, 0.00234 µM	97.5	103	84.4
HPLM + 10% dialyzed FBS, 0.00702 µM	108	109	100
HPLM + 10% dialyzed FBS, 0.0211 µM	116	112	94.9
HPLM + 10% dialyzed FBS, 0.0632 µM	112	111	93.2
HPLM + 10% dialyzed FBS, 0.19 µM	96.7	107	99.6
HPLM + 10% dialyzed FBS, 0.569 µM	107	112	104
HPLM + 10% dialyzed FBS, 1.71 µM	110	115	103
HPLM + 10% dialyzed FBS, 5.12 µM	105	106	81.2
HPLM + 10% dialyzed FBS, 15.4 µM	115	77.5	54.5
HPLM + 10% dialyzed FBS, 46.1 µM	27	4.67	10.8
RPMI 5 mM glucose + 10% FBS, 0.000781 µM	101	87.6	102
RPMI 5 mM glucose + 10% FBS, 0.00234 µM	100	114	86.8
RPMI 5 mM glucose + 10% FBS, 0.00702 µM	101	118	97.3
RPMI 5 mM glucose + 10% FBS, 0.0211 µM	104	104	117
RPMI 5 mM glucose + 10% FBS, 0.0632 µM	95.3	102	94.5
RPMI 5 mM glucose + 10% FBS, 0.19 µM	93.4	113	99.1
RPMI 5 mM glucose + 10% FBS, 0.569 µM	95.7	110	99.9
RPMI 5 mM glucose + 10% FBS, 1.71 µM	98.2	113	85.4
RPMI 5 mM glucose + 10% FBS, 5.12 µM	89	110	66.3
RPMI 5 mM glucose + 10% FBS, 15.4 µM	85.3	71.6	51.7
RPMI 5 mM glucose + 10% FBS, 46.1 µM	29.4	8.24	6.87
RPMI 5 mM glucose + 10% dialyzed FBS, 0.000781 µM	94.7	105	87.7
RPMI 5 mM glucose + 10% dialyzed FBS, 0.00234 µM	96.6	121	90.3
RPMI 5 mM glucose + 10% dialyzed FBS, 0.00702 µM	122	110	103
RPMI 5 mM glucose + 10% dialyzed FBS, 0.0211 µM	111	116	108
RPMI 5 mM glucose + 10% dialyzed FBS, 0.0632 µM	108	118	102
RPMI 5 mM glucose + 10% dialyzed FBS, 0.19 µM	99.8	118	122
RPMI 5 mM glucose + 10% dialyzed FBS, 0.569 µM	106	121	96.3
RPMI 5 mM glucose + 10% dialyzed FBS, 1.71 µM	98.2	124	101
RPMI 5 mM glucose + 10% dialyzed FBS, 5.12 µM	82.7	112	81.3
RPMI 5 mM glucose + 10% dialyzed FBS, 15.4 µM	97.3	82.9	55.2
RPMI 5 mM glucose + 10% dialyzed FBS, 46.1 µM	40.7	14.7	13.5

Source: the supplement of paper PMC11451515
